Assay results as given in patent publication US7655810B2, “Phosphine transition metal complex, method for producing the same, and antitumor agent containing the same” (Nippon Chemical Industrial Co., Ltd., priority 2005, dated 2010).

Tests used:
[1] = tested on: HL-60 (human acute myelocytic leukemia cells); assay: Evaluation of antitumor activity, MTT viable cell count (modified Mosmann method); assay type: cell-based; settings: read-out: IC50 (50% inhibitory concentration from viable cell count), HL-60 cells, 24 hours culture, average of at least three measured values
Method: Cisplatin was also evaluated as a comparative example by the same method.
HL-60 (human acute myelocytic leukemia cells) was used as cancer cells. The cells were cultured in Rosewell Park Memorial Institute medium (RPMI 1640) supplemented with 10% fetal bovine serum, 1% antibiotic, and an antifungal agent in an atmosphere of 5% carbon dioxide in a moist incubator at 37° C.
The cells were washed with PBS. After the cell count was determined, a suspension (1×10^5 cells/mL) was prepared with the same medium. The suspension was seeded at a density of […] in a sterile 96-well microplate.
The prepared solutions were respectively added to the wells and cultured in the incubator for 24 hours.
The viable cell count was determined by a modified Mosmann method (T. Mosmann, J. Immunol. Method (1983) 65, 55-63). More specifically, a solution of a tetrazolium salt (3,[4,5-dimethylthiazole-2-yl]-2,5-diphenyltetrazolium bromide, MTT) was added to the wells. The wells were cultured for another 3 hours under the same conditions. Formazan crystals formed by the enzyme activity of mitochondria in the cells were dissolved in 0.04 mol/L HCl isopropyl alcohol solution, and the absorbance of each well was measured at 595 nm with a microplate reader (Bio-Rad 550). The background noises were canceled by subtracting the absorbance at 630 nm from the absorbance at 595 nm to obtain a viable cell count. […] For the calculation for IC50, at least three measured values obtained under the same conditions were averaged.

[2] = tested on: female Sprauge-Dawley SPF rats; assay: Toxicity test by single oral administration to rats; assay type: in vivo, rat
Method: After female Sprauge-Dawley SPF rats (CrJ: CD (SD)) were quarantined and acclimated for about a week, healthy 8-week-old rats were selected in groups of five rats. The rats was fasted overnight before administration, and single oral doses of 20, 50, 100, and 300 mg/kg of the phosphine gold complex, and 10, 20, 50, and 100 mg/kg of cisplatin dissolved in corn oil were administrated the respective rats. The rats were observed 10 and 30 minutes and 1, 2, and 4 hours after administration, and further observed daily until the 14th day.

Bis(1,2-bis((2S,5S)-2,5-(dimethylphosphorano)benzene))gold (I) Chloride [Example 3]
IC50 [1]: 3.55 µM

Bis((+)-1,2-bis((2R,5R)-2,5-dimethylphosphorano)ethane)gold (I) Chloride [Example 1]
IC50 [1]: 2.75 µM

Bis(1,2-bis((2R,5R)-2,5-(dimethylphosphorano)benzene))gold (I) Chloride [Example 4]
Change in general conditions, body weight and internal organs ([2]; single oral administration, over the period of the test (14 days)): no specific change in general conditions, body weight, and internal organs was observed | Survival of rats ([2]; single oral doses of 20, 50, 100 and 300 mg/kg, until the 14th day): did not die even at the 14th day | IC50 [1]: 0.542 µM

Bis((−)-1,2-bis((2S,5S)-2,5-dimethylphosphorano)ethane)gold (I) Chloride [Example 2]
IC50 [1]: 1.66 µM
